For 26 compounds, IC50 results are on record in US9243002B2, “Tetracyclic heterocycle compounds and methods of use thereof for the treatment of hepatitis C” (priority 2013, dated 2016).

Like-named read-outs stand apart in the source and are kept apart here.

One test relates to HCV genotype 1b replicon. As to the kind of experiment: HCV replicon assay, genotype 1b (cell ELISA for NS3/4A). Format: cell-based, hepatitis C virus. As for the experimental part:
(§1) Measurement of inhibition by compounds was performed using the HCV replicon system. Several different replicons encoding different HCV genotypes or mutations were used. In addition, potency measurements were made using different formats of the replicon assay, including different ways of measurements and different plating formats. See Jan M. Vrolijk et al., A replicons-based bioassay for the measurement of interferons in patients with chronic hepatitis C, 110 J. VIROLOGICAL METHODS 201 (2003); Steven S. Carroll et al., Inhibition of Hepatitis C Virus RNA Replication by 2′-Modified Nucleoside Analogs, 278 (14) J. BIOLOGICAL CHEMISTRY 11979 (2003). However, the underlying principles are common to all of these determinations, and are outlined below.
(§2) Stable neomycin phosphotransferase encoding replicons-harboring cell lines were used, so all cell lines were maintained under G418 selection prior to the assay. Potency was deteremined using a cell ELISA assay with an antibody to the replicons encoded NS3/4a protease. See Caterina Trozzi et al., In Vitro Selection and Characterization of Hepatitis C Virus Serine Protease Variants Resistant to an Active-Site Peptide Inhibitor, 77 (6) J. Virol. 3669 (2003). To initiate an assay, replicon cells were plated in the presence of a dilution series of test compound in the absence of G418. Typically, the assays were performed in a 96-well plate formate for manual operation, or a 384-well plate format for automated assay. Replicon cells and compound were incubated for 96 hours. At the end of the assay, cells were washed free of media and compound, and the cells were then lysed. RNA was quantified indirectly through detection of replicon-encoded NS3/4A protein levels, through an ELISA-based assay with an antibody specific for NS3/4A. IC50 determinations were calculated as a percentage of a DMSO control by fitting the data to a four-parameter fit function and the data obtained for genotypes 1a and 1b using this method is provided in the table below.

Another test relates to HCV genotype 1a replicon. As to the kind of experiment: HCV replicon assay, genotype 1a (cell ELISA for NS3/4A). The class given is cell-based, hepatitis C virus. The protocol:
as §1, §2

The mark [1] stands for this setting: Hepatitis C virus, 96 h, read-out: 1b IC50 (nM), genotype 1b replicon cells, 96 hours incubation, NS3/4A ELISA.
[2] abbreviates: Hepatitis C virus, 96 h, read-out: 1a IC50 (nM), genotype 1a replicon cells, 96 hours incubation, NS3/4A ELISA.
[3] abbreviates: read-out: 1b IC50, genotype 1b replicon cells, 96 hours incubation, NS3/4A ELISA.
Setting [4] is: read-out: 1a IC50, genotype 1a replicon cells, 96 hours incubation, NS3/4A ELISA.

Turning to `CNC(=O)c1c(-c2ccnn2C(C)C)oc2cc(N(C)S(C)(=O)=O)c(-c3ccc4c(n3)-c3cc5c(F)cccc5n3CC4)cc12` [Example 17, 5-(11-fluoro-5,6-dihydroindolo[1,2-h][1,7]naphthyridin-2-yl)-2-(1-isopropyl-1H-pyrazol-5-yl)-N-methyl-6-(N-methylmethylsulfonamido)benzofuran-3-carboxamide], the IC50 in the test with HCV genotype 1b replicon (setting [1]) turned out to be 197 nM; with HCV genotype 1a replicon (setting [2]) it was 373 nM.

`CNC(=O)c1c(-c2ccc(F)cc2)oc2cc(N(C)S(C)(=O)=O)c(-c3ncc4c(n3)-c3cc5c(F)cccc5n3CC4)cc12` [Example 63, 5-(11-fluoro-5,6-dihydropyrimido[4′,5′:3,4]pyrido[1,2-a]indol-2-yl)-2-(4-fluorophenyl)-N-methyl-6-(N-methylmethylsulfonamido)benzofuran-3-carboxamide]: the IC50 was 3.28 nM in the test on HCV genotype 1b replicon (setting [1]) and 4.34 nM in the test on HCV genotype 1a replicon (setting [2]).

Take `CNC(=O)c1c(-c2cnn3c2CCC3)oc2cc(N(C)S(C)(=O)=O)c(-c3ccc4c(n3)-c3cc5c(F)cccc5n3CC4)cc12` [Example 19]: the figures for the IC50 with HCV genotype 1b replicon (setting [1]) and with HCV genotype 1a replicon (setting [2]) were 52.3 nM and 56.9 nM, respectively.

For the compound `CNC(=O)c1c(-c2ccc(F)cc2)oc2cc(N(C)S(C)(=O)=O)c(-c3ccc4c(n3)-c3cc5nc(OC)ccc5n3CC4)cc12` [Example 78], the figures for the IC50 with HCV genotype 1b replicon (setting [1]) and with HCV genotype 1a replicon (setting [2]) were 22.1 nM and 206 nM, respectively.

For `CNC(=O)c1c(-c2ccc(OCC(F)(F)F)nc2)oc2cc(N(C)S(C)(=O)=O)c(-c3ccc4c(n3)-c3cc5c(F)cccc5n3CC4)cc12` [Example 4], the IC50 in the test on HCV genotype 1b replicon (setting [1]) came out at 7.3 nM; in the test on HCV genotype 1a replicon (setting [2]), 6.99 nM.

Take `CNC(=O)c1c(-n2ccccc2=O)oc2cc(N(C)S(C)(=O)=O)c(-c3ccc4c(n3)-c3cc5c(F)cccc5n3CC4)cc12` [Example 34]: the IC50 came out at 4.66 nM in the test with HCV genotype 1b replicon (setting [1]) and 5.38 nM in the test with HCV genotype 1a replicon (setting [2]).

Regarding `CNC(=O)c1c(-c2ccc(F)cc2)oc2cc(N(C)S(C)(=O)=O)c(-c3ccc4c(n3)-c3cc5c(F)cccc5n3CC4C)cc12` (stereo not shown) [Example 62], the IC50 in the test with HCV genotype 1b replicon (setting [1]) stood at 2.55 nM; in the test on HCV genotype 1a replicon (setting [2]), 2.69 nM.

In the case of `CNC(=O)c1c(-c2cnc(C(C)(C)O)s2)oc2cc(N(C)S(C)(=O)=O)c(-c3ccc4c(n3)-c3cc5c(F)cccc5n3CC4)cc12` [Example 20], the figures for the IC50 in the test on HCV genotype 1b replicon (setting [1]) and with HCV genotype 1a replicon (setting [2]) were 129 nM and 680 nM, respectively.

`CNC(=O)c1c(-c2cnn(CCO)c2)oc2cc(N(C)S(C)(=O)=O)c(-c3ccc4c(n3)-c3cc5c(F)cccc5n3CC4)cc12` [Example 23]: the IC50 is 83.2 nM in the test with HCV genotype 1b replicon (setting [1]) and 212 nM in the test on HCV genotype 1a replicon (setting [2]).

Turning to `CNC(=O)c1c(-c2ccc(F)cc2)oc2cc(N(C)S(C)(=O)=O)c(-c3ccc4c(n3)-c3cc5c(F)cccc5n3CC43CC3)cc12` [Example 97, 5-(11′-fluoro-6′H-spiro[cyclopropane-1,5′-indolo[1,2-h][1,7]naphthyridin]-2′-yl)-2-(4-fluorophenyl)-N-methyl-6-(N-methylmethylsulfonamido)benzofuran-3-carboxamide], the results for the IC50 in the test with HCV genotype 1b replicon (setting [1]) and in the test with HCV genotype 1a replicon (setting [2]) were 9.98 nM and 10.7 nM, respectively.

In the case of `CNC(=O)c1c(-n2ccc(C)cc2=O)oc2cc(N(C)S(C)(=O)=O)c(-c3ccc4c(n3)-c3cc5c(F)cccc5n3CC4)cc12` [Example 32, 5-(11-fluoro-5,6-dihydroindolo[1,2-h][1,7]naphthyridin-2-yl)-N-methyl-2-(4-methyl-2-oxopyridin-1 (2H)-yl)-6-(N-methylmethylsulfonamido)benzofuran-3-carboxamide], the IC50 in the test with HCV genotype 1b replicon (setting [1]) turned out to be 3.95 nM; in the test with HCV genotype 1a replicon (setting [2]) it was 10.6 nM.

For the compound `CNC(=O)c1c(-c2ccc(F)nc2)oc2cc(N(C)S(C)(=O)=O)c(-c3ccc4c(n3)-c3cc5c(F)cccc5n3CC4)cc12` [Example 15], the IC50 was 5.09 nM in the test with HCV genotype 1b replicon (setting [1]) and 3.41 nM with HCV genotype 1a replicon (setting [2]).

Turning to `CNC(=O)c1c(-c2ccc(C(F)(F)F)cc2)oc2cc(N(C)S(C)(=O)=O)c(-c3ccc4c(n3)-c3cc5c(F)cccc5n3CC4)cc12` [Example 1, 5-(11-fluoro-5,6-dihydroindolo[1,2-h][1,7]naphthyridin-2-yl)-N-methyl-6-(N-methylmethylsulfonamido)-2-(4-(trifluoromethyl)phenyl)benzofuran-3-carboxamide], the IC50 with HCV genotype 1b replicon (genotype 1b replicon cells, 96 hours incubation, NS3/4A ELISA, read-out: 1b IC50) worked out at 4.67 nM; in the test on HCV genotype 1a replicon (genotype 1a replicon cells, 96 hours incubation, NS3/4A ELISA, read-out: 1a IC50) it was 3.78 nM.

With `CNC(=O)c1c(-c2ccc(F)cc2)oc2cc(N(C)S(C)(=O)=O)c(-c3cc4c(cn3)CC(C)(C)n3c-4cc4c(F)cccc43)cc12` [Example 64, 5-(11-fluoro-6,6-dimethyl-5,6-dihydroindolo[2,1-a][2,6]naphthyridin-2-yl)-2-(4-fluorophenyl)-N-methyl-6-(N-methylmethylsulfonamido)benzofuran-3-carboxamide], the IC50 was found to be 9.09 nM with HCV genotype 1b replicon (setting [1]) and 23.2 nM with HCV genotype 1a replicon (setting [2]).

Take `CNC(=O)c1c(-c2ccc(C)nc2)oc2cc(N(C)S(C)(=O)=O)c(-c3ccc4c(n3)-c3cc5c(F)cccc5n3C(CCN3CC(F)C3)C4)cc12` (stereo not shown) [Example 67]: the results for the IC50 in the test with HCV genotype 1b replicon (setting [3]) and in the test on HCV genotype 1a replicon (setting [4]) were 16.4 nM and 12.5 nM, respectively.

As for `CNC(=O)c1c(C2CC2)oc2cc(N(C)S(C)(=O)=O)c(-c3ccc4c(n3)-c3cc5c(F)cccc5n3CC4)cc12` [Example 16], the IC50 stood at 14.6 nM with HCV genotype 1b replicon (setting [1]) and 27 nM with HCV genotype 1a replicon (setting [2]).

`CNC(=O)c1c(-c2ccc(F)cc2)oc2cc(N(C)S(C)(=O)=O)c(-c3ccc4c(n3)-c3cc5c(F)cccc5n3C(CN3CC(F)C3)C4)cc12` (stereo not shown) [Example 90, 5-(11-fluoro-6-((3-fluoroazetidin-1-yl)methyl)-5,6-dihydroindolo[1,2-h][1,7]naphthyridin-2-yl)-2-(4-fluorophenyl)-N-methyl-6-(N-methylmethylsulfonamido)benzofuran-3-carboxamide]: the IC50 in the test on HCV genotype 1b replicon (setting [1]) was 2.79 nM; in the test with HCV genotype 1a replicon (setting [2]), 7.23 nM.

For `CNC(=O)c1c(-c2cnc(C)c(F)c2)oc2cc(N(C)S(C)(=O)=O)c(-c3ccc4c(n3)-c3cc5c(F)cccc5n3CC4)cc12` [Example 14], the figures for the IC50 in the test on HCV genotype 1b replicon (setting [1]) and with HCV genotype 1a replicon (setting [2]) were 24.3 nM and 26.4 nM, respectively.

As for `CNC(=O)c1c(-c2ccc(F)cc2Cl)oc2cc(N(C)S(C)(=O)=O)c(-c3ccc4c(n3)-c3cc5c(F)cccc5n3CC4)cc12` [Example 12], the IC50 in the test with HCV genotype 1b replicon (setting [1]) was 10.6 nM; in the test on HCV genotype 1a replicon (setting [2]) it was 4.59 nM.

As to `CNC(=O)c1c(-c2cnc(N3CCCC3)s2)oc2cc(N(C)S(C)(=O)=O)c(-c3ccc4c(n3)-c3cc5c(F)cccc5n3CC4)cc12` [Example 22], the IC50 with HCV genotype 1b replicon (setting [1]) stood at 163 nM; in the test with HCV genotype 1a replicon (setting [2]) it was 1450 nM.

As for `CNC(=O)c1c(-c2ccc(F)cc2)oc2cc(N(C)S(C)(=O)=O)c(-c3ccc4c(n3)-c3c(C)c5ccccc5n3CC4)cc12` [Example 76, 2-(4-fluorophenyl)-N-methyl-5-(12-methyl-5,6-dihydroindolo[1,2-h][1,7]naphthyridin-2-yl)-6-(N-methylmethylsulfonamido)benzofuran-3-carboxamide], the IC50 is 194 nM in the test with HCV genotype 1b replicon (setting [1]) and 1000 nM with HCV genotype 1a replicon (setting [2]).

With `CNC(=O)c1c(-c2ccc(C)nc2)oc2cc(N(C)S(C)(=O)=O)c(-c3ccc4c(n3)-c3cc5c(F)cccc5n3C(CCN3CC(F)C3)C4)cc12` (stereo not shown) [Example 66, 5-(11-fluoro-6-(2-(3-fluoroazetidin-1-yl)ethyl)-5,6-dihydroindolo[1,2-h][1,7]naphthyridin-2-yl)-N-methyl-6-(N-methylmethylsulfonamido)-2-(6-methylpyridin-3-yl)benzofuran-3-carboxamide], the IC50 in the test on HCV genotype 1b replicon (setting [3]) was found to be 11.4 nM; in the test with HCV genotype 1a replicon (setting [4]), 13 nM.

Regarding `CNC(=O)c1c(-c2ccc(F)cc2)oc2cc(N(C)S(C)(=O)=O)c(-c3cnc4c(n3)-c3cc5c(F)cccc5n3CC4)cc12` [Example 44, 5-(11-fluoro-5,6-dihydropyrazino[2′,3′:3,4]pyrido[1,2-a]indol-2-yl)-2-(4-fluorophenyl)-N-methyl-6-(N-methylmethylsulfonamido)benzofuran-3-carboxamide], the IC50 with HCV genotype 1b replicon (setting [1]) worked out at 1.87 nM; with HCV genotype 1a replicon (setting [2]), 1.76 nM.

Take `CNC(=O)c1c(-c2ccc(C)nc2)oc2cc(N(C)S(C)(=O)=O)c(-c3ccc4c(n3)-c3cc5c(F)cccc5n3CC4)cc12` [Example 7]: the IC50 in the test with HCV genotype 1b replicon (setting [1]) was 6.79 nM; in the test with HCV genotype 1a replicon (setting [2]), 17.6 nM.

For the compound `CNC(=O)c1c(-c2cnc3c(c2)OCCO3)oc2cc(N(C)S(C)(=O)=O)c(-c3ccc4c(n3)-c3cc5c(F)cccc5n3CC4)cc12` [Example 8], the IC50 with HCV genotype 1b replicon (setting [1]) is 122 nM; with HCV genotype 1a replicon (setting [2]), 580 nM.

On to `CNC(=O)c1c(-c2ccc(OC3CC3)nc2)oc2cc(N(C)S(C)(=O)=O)c(-c3ccc4c(n3)-c3cc5c(F)cccc5n3CC4)cc12` [Example 5], for which the IC50 with HCV genotype 1b replicon (setting [1]) came out at 2.3 nM; in the test on HCV genotype 1a replicon (setting [2]), 3.86 nM.
